Results as given in patent publication US8349368B2, “Compositions and methods for treating vaginal infections and pathogenic vaginal biofilms” (priority 2007, dated 2013).
In brackets after ≈: the same amount, converted by molar mass. Entries after “also recorded” stand apart in the source; their conditions may differ.

Legend:
G. vaginalis = assay: planktonic MIC, standard MIC methodologies; assay type: cell-based, G. vaginalis ATCC #14018; conditions: Gardnerella vaginalis
Method: (§1) As a prelude to the biofilm experiments, the planktonic (i.e., free-floating vs. biofilm-associated) MIC values for boric acid and EDTA against both test organisms were established utilizing standard MIC methodologies. In contrast to C. albicans, the planktonic MIC values for boric acid and EDTA against G. vaginalis had not previously been reported.
(§2) In preparation of the biofilm experiments relating to the invention, overnight cultures of C. albicans and G. vaginalis were prepared by adding 1 mL frozen stock to 9 mL growth media (either G. vaginalis ATCC #14018 in 50% BHI broth+1% starch, or C. albicans ATCC #96113 in 50% SD broth+1% sucrose) and incubated for 24 hours at 37° C., C. albicans was grown under atmospheric conditions while G. vaginalis was grown with the addition of 5% CO2.
(§3) Next, the 24 biofilm-covered coupons were aseptically removed from the CDC reactor and placed in a 24-well plate, with each well containing 2 mL of test solution. The test solutions were run in triplicate and included varied concentrations of boric acid (BA) and EDTA or a combination thereof. […] Fluconazole at a concentration of 8 μg/mL was selected as the treatment control for C. albicans.

C. albicans = assay: planktonic MIC, standard MIC methodologies; conditions: Candida albicans, read-out: planktonic MIC
recurrent BV = system: recurrent BV
Method: A retrospective case review was conducted of the use of boric acid in a series of patients with recurrent BV. Boric acid was employed as an antimicrobial agent as part of a 6-month sequential treatment protocol.
With the exception of boric acid, all of the other antimicrobials used were FDA approved for BV. The 6-month protocol was as follows: • 1. Induction: oral metronidazole or tinidazole twice daily for 7-10 days • 2. Boric acid treatment: 600-mg gelatin capsule inserted vaginally daily for 21 days • 3.

[1] = system: clinical isolates of C. albicans as well as non-albicans species; conditions: literature (Shubair 1990; Prutting 1998); cited from earlier work
[2] = system: common bacterial pathogens; conditions: literature (Meers 1990); cited from earlier work
[3] = including vaginal secretions and tissues; oral dosing, maximum daily dose 400 mg; cited from earlier work
G. vaginalis biofilm = assay: biofilm disruption in CDC biofilm reactor; assay type: cell-based, G. vaginalis ATCC #14018; conditions: metronidazole 192 μg/mL, 24-hour treatment
Method: as §1, §2, §3

BV biofilm = conditions: oral 500 mg twice daily for 7 days, cited from earlier work
G. vaginalis isolates = conditions: conventional planktonic MIC testing; cited from earlier work

O=C(O)CN(CCN(CC(=O)O)CC(=O)O)CC(=O)O [EDTA, ethylene-diamine-tetra-acetic acid]
MIC (G. vaginalis): 190 µg/mL
MIC (C. albicans): 780 µg/mL (≈ 2.67 mM)

OB(O)O [boric acid]
MIC (G. vaginalis): 3120 µg/mL
treatment failures during boric acid therapy (recurrent BV; 600-mg vaginal capsule daily for 21 days): none of the treatment failures occurred during boric acid therapy
patients remaining cured (recurrent BV; at 9 months (3 months after maintenance)): Sixty-seven
patients clinically cured (asymptomatic and negative for Amsel's criteria) (recurrent BV; end of 6 months, nitroimidazole induction, boric acid 600 mg vaginally daily 21 days, metronidazole gel maintenance, 24/31): 77%
secondary yeast infection or discontinuation because of adverse event or intolerance (recurrent BV; in vivo): none of the patients experienced a secondary yeast infection or discontinued
median duration of remission (recurrent BV; retrospective case series): 8.7 months
antifungal activity in vitro [1]: weakly fungistatic
antibacterial activity in vitro [2]: bacteriostatic activity
MIC (C. albicans): 1560 µg/mL (≈ 25.2 mM)

OC(Cn1cncn1)(Cn1cncn1)c1ccc(F)cc1F [fluconazole, Fluconazole]
drug levels achieved in biologic fluids and tissues [3]: 4.12-8.08 μg/mL

Cc1ncc([N+](=O)[O-])n1CCO [metronidazole]
MIC (G. vaginalis): 128 µg/mL
effect of active control on G. vaginalis biofilm (G. vaginalis biofilm): little impact; also recorded: minimal impact
vaginal biopsy result (fluorescent in situ hybridization) (BV biofilm; G. vaginalis and Atopobium): persistent accumulation of core pathogenic bacteria
clinical response by standard clinical and microbiologic methods (BV biofilm; each time point): resolution of BV
susceptibility of G. vaginalis isolates (G. vaginalis isolates): good susceptibility
